“Also recorded” adds a separate entry of the source.
Key:
SJL/J mice [1] = assay: EAE model, preventive treatment; assay type: in vivo; settings: single i.p. injection on day 0, 0.5 or 1 mg/kg; FIG. 3
Text: (§1) Animals. SJL/J mice were purchased from Janvier (Le Genest-St-Isle, France) and bred under conventional barrier protection at the Pasteur Institute (Lille, France). All experiment protocols and procedures were in compliance with the European Communities Council Directives of 24 Nov. 1986 (86/609/EEC) and were approved by the local ethical committee (CEEA 102009R). Efforts were made to minimize the number of animals used and their suffering. Animals that reached severe hind limb paresis (clinical grade 3) were isolated, and hydration and food access were facilitated.
(§2) EAE induction and treatment. The method of EAE induction was similar to previously published methods (Lee-Chang et al., Immunol Lett. 2011 Mar. 30; 135(1-2):108-17). […]
(§3) Body weight and clinical signs of EAE were monitored daily. The severity of clinical symptoms was scored based on a standard neurological scoring system for EAE, as follows: grade 0, no disease; grade 1, moderate tail hypotonia and/or slight clumsy gait; grade 2, tail atony and/or clumsy gait; grade 3, severe hind limb paresis; grade 4, paraplegia; grade 5, tetraplegia. […]

SJL/J mice [2] = assay: EAE model, curative treatment; assay type: in vivo; settings: p.o. from onset of EAE (grade 2) for 14 days, 0.5 or 1 mg/kg; followed 70 days; FIG. 4
Text: as §1, §2, §3

CN(CCCNC(=O)c1ccc(Cl)cc1)Cc1ccccc1 [Compound 3.1.10, N-[3-(benzylmethylamino)propyl]-4-chlorobenzamide]
EAE clinical course, preventive treatment (SJL/J mice [1]): Amelioration of EAE; also recorded: delaying the onset of EAE
EAE clinical course, curative treatment (SJL/J mice [2]): Amelioration of EAE; also recorded: alleviating the symptoms of EAE

— patent US10179761B2, “Compounds, pharmaceutical composition and their use in treating neurodegenerative diseases” (UNIVERSITE DE LILLE 2 DROIT ET SANTE, priority 2014, dated 2019)
